Several values for one entry are separate records, joined by “and”; a condition that tells them apart may be missing. Identical values can stand only once. Inconclusive results and toxic doses are left out. No stated cut-off is given here; in the data, active means T/C of 150% or more; inactive means T/C below 125%.
Test system: L1210 leukemia ip in BDF1 mice, survival T/C
Assay: NCI In Vivo Anticancer Drug Screen. Data for tumor model L1210 Leukemia (intraperitoneal) in B6D2F1 (BDF1) mice
Conditions: endpoint: mean survival time, higher = longer survival
In short: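 Each compound was tested against a transplantable tumor grown in mice. The endpoint was survival, with treated animals benchmarked against vehicle controls as a simple ratio.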

[1] = dose: 100.0 mg/kg/injection, schedule: Q04DX003 (ip), vehicle: Klucel (hydroxypropylcellulose) (HPC)
[2] = dose: 200.0 mg/kg/injection, schedule: Q04DX003 (ip), vehicle: Klucel (hydroxypropylcellulose) (HPC)
[3] = dose: 400.0 mg/kg/injection, schedule: Q04DX003 (ip), vehicle: Klucel (hydroxypropylcellulose) (HPC)
[4] = dose: 200.0 mg/kg/injection, schedule: Q01DX001 (ip), vehicle: carboxymethylcellulose (CMC)
[5] = dose: 100.0 mg/kg/injection, schedule: Q01DX001 (ip), vehicle: saline
[6] = dose: 200.0 mg/kg/injection, schedule: Q01DX001 (ip), vehicle: saline
[7] = dose: 400.0 mg/kg/injection, schedule: Q01DX001 (ip), vehicle: saline
[8] = dose: 100.0 mg/kg/injection, schedule: Q01DX001 (ip), vehicle: Klucel (hydroxypropylcellulose) (HPC)
[9] = dose: 200.0 mg/kg/injection, schedule: Q01DX001 (ip), vehicle: Klucel (hydroxypropylcellulose) (HPC)
[10] = dose: 400.0 mg/kg/injection, schedule: Q01DX001 (ip), vehicle: Klucel (hydroxypropylcellulose) (HPC)
[11] = dose: 100.0 mg/kg/injection, schedule: Q01DX001 (ip), vehicle: saline with Tween-80
[12] = dose: 50.0 mg/kg/injection, schedule: Q01DX009 (ip), vehicle: saline with Tween-80
[13] = dose: 100.0 mg/kg/injection, schedule: Q04DX003 (ip), vehicle: saline with Tween-80
[14] = dose: 200.0 mg/kg/injection, schedule: Q01DX009 (ip), vehicle: saline with Tween-80
[15] = dose: 200.0 mg/kg/injection, schedule: Q04DX003 (ip), vehicle: saline with Tween-80
[16] = dose: 400.0 mg/kg/injection, schedule: Q01DX009 (ip), vehicle: saline with Tween-80
[17] = dose: 400.0 mg/kg/injection, schedule: Q04DX003 (ip), vehicle: saline with Tween-80
[18] = dose: 200.0 mg/kg/injection, schedule: Q01DX009 (ip), vehicle: Klucel (hydroxypropylcellulose) (HPC)
[19] = dose: 400.0 mg/kg/injection, schedule: Q01DX009 (ip), vehicle: Klucel (hydroxypropylcellulose) (HPC)
[20] = dose: 50.0 mg/kg/injection, schedule: Q01DX001 (ip), vehicle: saline
[21] = dose: 50.0 mg/kg/injection, schedule: Q01DX009 (ip), vehicle: saline
[22] = dose: 100.0 mg/kg/injection, schedule: Q01DX009 (ip), vehicle: Klucel (hydroxypropylcellulose) (HPC)

Measured: T/C

Nc1ncnc2c1ccn2Cc1ccccc1
inactive: dose: 50.0 mg/kg/injection, schedule: Q01DX001 (ip), vehicle: other 111 % of control | dose: 100.0 mg/kg/injection, schedule: Q01DX001 (ip), vehicle: other 97 % of control | dose: 200.0 mg/kg/injection, schedule: Q01DX001 (ip), vehicle: other 97 % of control | dose: 400.0 mg/kg/injection, schedule: Q01DX001 (ip), vehicle: other 103 % of control

Cc1c(Cl)cccc1NC(=O)OC(C)C
inactive: [1] 106 % of control | [2] 97 % of control | [3] 97 % of control

O=c1[nH]c2c(c(=O)[nH]1)OCN(Cc1ccccc1)C2
inactive: dose: 50.0 mg/kg/injection, schedule: Q01DX001 (ip), vehicle: carboxymethylcellulose (CMC) 98 % of control | dose: 100.0 mg/kg/injection, schedule: Q01DX001 (ip), vehicle: carboxymethylcellulose (CMC) 105 % of control | [4] 100 % of control | dose: 400.0 mg/kg/injection, schedule: Q01DX001 (ip), vehicle: carboxymethylcellulose (CMC) 100 % of control

O=C(O)C1CCCCN1O (stereo not given)
inactive: [5] 102 % of control | [6] 104 % of control | [7] 104 % of control

CCN(C(=S)c1ccccc1)c1ccc(C(=O)OC)cc1
inactive: dose: 75.0 mg/kg/injection, schedule: Q04DX003 (ip), vehicle: saline 100 % of control | [8] 100 % of control | dose: 150.0 mg/kg/injection, schedule: Q04DX003 (ip), vehicle: saline 102 % of control | [9] 104 % of control | dose: 300.0 mg/kg/injection, schedule: Q04DX003 (ip), vehicle: saline 97 % of control | [10] 100 % of control

CCOc1cc(C#N)c(OCC)cc1N
inactive: [5] 103 % of control | [6] 101 % of control

CCN(CC)P(=O)(N1CC1(C)C)N1CC1(C)C (stereo not given)
inactive: dose: 88.0 mg/kg/injection, schedule: Q01DX001 (ip), vehicle: carboxymethylcellulose (CMC) 114 % of control | dose: 88.0 mg/kg/injection, schedule: Q01DX001 (ip), vehicle: saline 102 % of control | [5] 118 % of control | dose: 133.0 mg/kg/injection, schedule: Q01DX001 (ip), vehicle: carboxymethylcellulose (CMC) 118 % of control | dose: 133.0 mg/kg/injection, schedule: Q01DX001 (ip), vehicle: saline 107 % of control | [4] 114 % of control | dose: 300.0 mg/kg/injection, schedule: Q01DX001 (ip), vehicle: saline 115 % of control

OC1c2ccccc2CC1N1CCCCC1 (stereo not given)
inactive: [11] 97 % of control

O=C(/C=C/c1ccccc1)NC(=S)Nc1ccccc1F
inactive: dose: 12.5 mg/kg/injection, schedule: Q01DX009 (ip), vehicle: saline with Tween-80 106 % of control and 88 % of control | dose: 25.0 mg/kg/injection, schedule: Q01DX009 (ip), vehicle: saline with Tween-80 95 % of control and 107 % of control | [12] 97 % of control | [11] 92 % of control | dose: 100.0 mg/kg/injection, schedule: Q04DX002 (ip), vehicle: alcohol 95 % of control and 90 % of control | [13] 94 % of control | dose: 200.0 mg/kg/injection, schedule: Q01DX001 (ip), vehicle: saline with Tween-80 90 % of control | [14] 89 % of control | dose: 200.0 mg/kg/injection, schedule: Q04DX002 (ip), vehicle: alcohol 101 % of control | [15] 87 % of control | dose: 400.0 mg/kg/injection, schedule: Q01DX001 (ip), vehicle: saline with Tween-80 87 % of control | [16] 86 % of control | dose: 400.0 mg/kg/injection, schedule: Q04DX002 (ip), vehicle: alcohol 102 % of control | [17] 86 % of control

O=C(O)/C=C\C(=O)Nc1ccc(Cc2ccc(NC(=O)/C=C\C(=O)O)cc2)cc1
inactive: [5] 115 % of control | [1] 95 % of control | [6] 103 % of control | [2] 100 % of control | [7] 103 % of control | [3] 97 % of control

CC1=CC(C)(C)NC(=S)N1c1ccccc1
inactive: [1] 103 % of control | [18] 86 % of control | [2] 103 % of control | [19] 87 % of control | [3] 101 % of control

O=C(O)O.[Co].[NH-]CC[N-]CC[N-]CC[NH-]
inactive: [20] 97 % of control | [5] 108 % of control | [6] 92 % of control | [7] 100 % of control

C=CS(=O)(=O)c1ccc2ccccc2c1
inactive: dose: 10.0 mg/kg/injection, schedule: Q04DX002 (ip), vehicle: Klucel (hydroxypropylcellulose) (HPC) 118 % of control | dose: 20.0 mg/kg/injection, schedule: Q04DX002 (ip), vehicle: Klucel (hydroxypropylcellulose) (HPC) 96 % of control | dose: 40.0 mg/kg/injection, schedule: Q04DX002 (ip), vehicle: Klucel (hydroxypropylcellulose) (HPC) 100 % of control

O=C(CCCC(=O)N/N=C/c1ccc(C(=O)O)cc1)N/N=C\c1ccc(C(=O)O)cc1
inactive: [20] 104 % of control | [5] 102 % of control | [6] 98 % of control | [7] 98 % of control

CC1(C)C2CC3C(=CCC4C(=O)C5CC=C6C(CC7CC6C7(C)C)C5C(=O)C43)C1C2 (stereo not given)
inactive: [8] 103 % of control | [9] 93 % of control | [10] 93 % of control

COc1cc(C=Nc2ccc(-c3nc(C)sc3C)cc2)ccc1N(CCOS(C)(=O)=O)CCOS(C)(=O)=O
inactive: [21] 111 % of control | [5] 110 % of control | dose: 100.0 mg/kg/injection, schedule: Q01DX009 (ip), vehicle: saline 121 % of control | [6] 105 % of control | dose: 200.0 mg/kg/injection, schedule: Q01DX009 (ip), vehicle: saline 116 % of control

Cc1cc(=O)[nH]c(N/N=C/c2cc(Cl)ccc2O)n1
inactive: [12] 87 % of control

CS(=O)(=O)CCS(=O)(=O)c1cccs1
inactive: dose: 50.0 mg/kg/injection, schedule: Q01DX009 (ip), vehicle: Klucel (hydroxypropylcellulose) (HPC) 103 % of control | [22] 102 % of control | [1] 110 % of control | [2] 112 % of control | [3] 111 % of control

CCCCCCCC(=O)N1CCOCC1
inactive: dose: 50.0 mg/kg/injection, schedule: Q04DX003 (ip), vehicle: saline with Tween-80 96 % of control

O=C(N=C1C=CC(=NC(=O)OCc2ccccc2)C=C1)OCc1ccccc1
inactive: [22] 98 % of control | [1] 92 % of control | [18] 100 % of control | [2] 88 % of control | [19] 100 % of control | [3] 90 % of control

CN(C)C=Nc1ccc2c3c(cccc13)CC2
inactive: dose: 6.25 mg/kg/injection, schedule: Q04DX003 (ip), vehicle: saline with Tween-80 103 % of control | dose: 12.5 mg/kg/injection, schedule: Q04DX003 (ip), vehicle: saline with Tween-80 88 % of control | dose: 25.0 mg/kg/injection, schedule: Q04DX003 (ip), vehicle: saline with Tween-80 98 % of control

CC(CCN)(CCN)[N+](=O)[O-]
inactive: [5] 98 % of control | [6] 92 % of control | [7] 93 % of control

CCN(C(=O)c1ccc(C(=O)N(CC)c2ccccc2)cc1)c1ccccc1
inactive: [13] 96 % of control | [15] 91 % of control | [17] 91 % of control

COc1cc2ccc3ccncc3c2cc1OC
inactive: dose: 12.5 mg/kg/injection, schedule: Q01DX009 (ip), vehicle: saline 104 % of control | dose: 25.0 mg/kg/injection, schedule: Q01DX009 (ip), vehicle: saline 106 % of control and 115 % of control | [21] 97 % of control and 111 % of control | dose: 100.0 mg/kg/injection, schedule: Q04DX003 (ip), vehicle: saline 86 % of control

CC(=O)NC1C(O)C(NC(C)=O)C(OC(C)=O)C(OC(C)=O)C1OC(C)=O (stereo not given)
inactive: [13] 95 % of control | [15] 101 % of control | [17] 94 % of control

O=C(O)C1C2CC3C(OC(=O)C31)C2Br (stereo not given)
inactive: [5] 104 % of control | dose: 100.0 mg/kg/injection, schedule: Q01DX009 (ip), vehicle: saline with Tween-80 91 % of control | [13] 91 % of control | [6] 94 % of control | [14] 96 % of control | [15] 100 % of control | [7] 97 % of control | [16] 91 % of control | [17] 104 % of control

O=C(O)CNCc1ccc2c(c1)OCCO2
inactive: [8] 108 % of control | [9] 92 % of control | [10] 95 % of control

From PubChem BioAssay AID248 (DTP/NCI, 2004)
